Experimental data: patent US20250222066A1, “COMPOSITIONS AND METHODS OF TREATING, PREVENTING OR INHIBITING A FACULTATIVE ANAEROBE INFECTION” (UNIVERSITY OF UTAH RESEARCH FOUNDATION, priority 2022, published 2025)
“Also recorded” adds a separate entry of the source. Like-named read-outs stand apart in the source and are kept apart here.

Assays:
S. aureus = experiment: Minimum inhibitory concentration (MIC) assay, planktonic bacteria; type: cell-based; conditions: for MIC: Staphylococcus aureus
Text: Shortcomings of clinical antibiotic susceptibility assays. The antibiotic-susceptibility assays used to guide clinical treatment and prophylaxis rely on actively-dividing planktonic bacteria (Williams, D. L. & Costerton, J. W. J Biomed Mat Res B 100, 1163-1169 (2011)). Among the assays performed by clinical reference laboratories are the minimum inhibitory concentration (MIC), and disk diffusion (Kirby-Bauer) assays. The ubiquity of these assays is owed to the fact that they are high throughput, relatively quick to perform, repeatable, and have short turnaround times. They inform clinicians regarding which antibiotic are applicable for a given infection from a simple site swab, blood, or aspirate sample. […] Thus, when a compound, such as metronidazole performs poorly in an MIC assay, a physician would be thoroughly dissuaded from using it. Likewise, in drug-development, a high MIC value would exclude potentially useful anti-biofilm agents from candidate drug libraries. […] Using orthodox clinical methodology, there would be no basis to administer metronidazole in the treatment of a S. aureus-related infections, despite its exceptional efficacy against bacterial biofilms of the same isolates. The MIC assay fails to provide any information about susceptibility profiles of bacteria that reside in the biofilm phenotype.
(§1) For comparison to these biofilm tests with adjunctive metronidazole, the MIC was determined for each organism and each compound tested.

A. baumannii = experiment: as above; type: cell-based; conditions: Acinetobacter baumannii; aerobic; for 1:1 combinations MIC is the sum of both compounds
Procedure: as §1

MRSA USA300 = experiment: as above; type: cell-based; conditions: Staphylococcus aureus, for 1:1 combinations MIC is the sum of both compounds
Procedure: as §1

P. aeruginosa = experiment: as above; type: cell-based; conditions: Pseudomonas aeruginosa, for 1:1 combinations MIC is the sum of both compounds
Procedure: as §1

S. epidermidis = experiment: as above; type: cell-based, Staphylococcus epidermidis; conditions: Staphylococcus epidermidis, for 1:1 combinations MIC is the sum of both compounds
Procedure: (§2) Three groups of 5 coupons/samples (n=5) were placed into 2 ml treatments either containing 0.5-1 mg/ml of gentamicin, metronidazole, or combinations thereof (in CAMHB) and incubated for 24 h at 37° C. Importantly, the total antibiotic concentration (mg/ml) was fixed for each sample to enable assessment of compound synergy.
as §1

E. coli = experiment: as above; type: cell-based, Escherichia coli; conditions: Escherichia coli, for 1:1 combinations MIC is the sum of both compounds
Procedure: as §1

K. pneumoniae = experiment: as above; type: cell-based, Klebsiella pneumoniae; conditions: for MIC: Klebsiella pneumoniae, for 1:1 combinations MIC is the sum of both compounds
Procedure: as §1

[1] = system: S. aureus ATCC 6538 biofilms; experiment: CDC biofilm reactor coupons, 24 h antibiotic treatment, bioburden by serial dilution plating; type: cell-based; conditions: 24 h treatment, FIG. 1 and FIG. 7
Procedure: (§3) For determining the broad-spectrum utility of metronidazole, respective bacterial species were grown into stationary biofilms using a 2- or 3-day species-specific growth protocol in a CDC biofilm reactor on standard 0.5 in polycarbonate coupons. Each reactor holds up to 24 coupons/samples with adherent biofilms. Bacterial bioburden, represented as colony forming units (CFUs), from five reactor samples/coupons (n=5) were quantified by first dispersing the bacterial biofilms in 2 ml of PBS by standardized vortex-sonication technique and serial-dilution plating. Importantly, this quantification technique provides bioburden data with logarithmic sensitivity. […] The gray shaded regions represent standard deviations.
as §2
After the 24 h treatment, the bacteria adhered to coupons were quantified by rinsing the samples very gently in excess PBS followed by vortexing and sonicating to disperse the biofilm in 2 ml PBS and subsequent serial-dilution plating. The bioburden of the adhered bacteria is represented by the blue bars in FIG. 1. […] Broth bioburden is represented by the red bars in FIG. 1.
Twelve hypoxia activated prodrugs from three categories were tested: nitroimidazoles (same class as metronidazole), nitrofurans, and anti-tumor agents.
To test each compound, the contents of an entire CDC-biofilm reactor (24 coupons/biofilm samples) were used (see FIG. 2 and FIG. 3). […] Using the methods described above, 4 reactor samples/coupons served as reactor controls. The remaining 20 samples/coupons were split into 4 treatment groups of 5 samples each (n=5).
For testing against S. aureus biofilms, the compounds were prepared at a concentration of 1 mM in CAMHB; coupons were treated in 2 ml for 24 h. Compounds were intentionally prepared in units of molarity rather than the more common weight/volume ratios of clinicians.
This choice was made for two reasons.
Two of the treatment groups were the same for each test: one in 1 mM nafcillin (a β-lactam antibiotic) and a second in 1 mM gentamicin. […] For comparison for most compounds 1 mM ranges from ˜0.15-0.5 mg/ml, 1 or 2 Log 2 dilutions below tests in FIG. 1. […] The other compounds were tested at the same concentrations.
Quantification of the post-treatment residual bioburden was performed by dispersing biofilm bacteria into the 2 ml treatments with its constituent bacteria by vortexing, and sonicating. […] The pelleted bacteria were resuspended and measured by the serial dilution plating technique. Thus, the values presented in FIGS. 2, 3 and 4 represent the cumulative change in bioburden from the surface-attached biofilms and bacteria in the treatments.

[2] = system: biofilms of a range of Gram-negative and Gram-positive organisms; experiment: CDC biofilm reactor test of metronidazole combinations across species (FIG. 1); type: cell-based; conditions: paired with gentamicin or levofloxacin (S. epidermidis); 0.5-1 mg/ml total, 24 h
Procedure: as §3, §2
After the 24 h treatment, the bacteria adhered to coupons were quantified by rinsing the samples very gently in excess PBS followed by vortexing and sonicating to disperse the biofilm in 2 ml PBS and subsequent serial-dilution plating. The bioburden of the adhered bacteria is represented by the blue bars in FIG. 1. […]

S. aureus biofilm = experiment: Live/dead imaging of metronidazole-treated biofilm; type: cell-based; conditions: 0.5 mg/ml metronidazole, 24 h
Text: FIGS. 9A-B show biofilm histochemical staining. […] Staining of pimonidazole adducts in pimonidazole-treated S. aureus biofilms is localized in the core; the deepest location (darker brown region indicated by arrow) adjacent to the collagen substrate. Regions where oxygen tension is insufficiently low for pimonidazole adduct formation is shown (arrow head; lighter brown region). […] Viable bacteria (green) resided on the biofilm surface, where oxygen and nutrients were readily available.
Next, a time-lapse confocal imaging paired with live-dead staining was used to observe the location of metronidazole-induced cell death.

[3] = system: S. aureus ATCC 6538 biofilms; experiment: Hypoxyprobe immunohistochemical staining of pimonidazole adducts in biofilms; type: cell-based; conditions: 0.06 mg/ml pimonidazole, 5 h
Text: Further, the Hypoxyprobe™ immunohistochemistry kit was used to identify regions of the biofilm that might be hypoxic, and to identify regions with nitro-reductase activity. At the core of the Hypoxyprobe™ kit is the use of the nitroimidazole pimonidazole; it is used to treat, usually animal tissues, but in this case bacterial tissues (biofilms) while in homeostasis prior to fixation, embedment, sectioning, and staining (see structures FIGS. 5E-F). The nitro group on pimonidazole, like that on metronidazole, is reductively activated in hypoxic mammalian tissues by reaction with catalytic nitro-reductase enzymes; it then forms indiscriminate adducts with inter-cellular thiol groups. In the presence of oxygen, the reduced nitro group in pimonidazole (and metronidazole) rapidly reacts with oxygen thereby cycling back to the parent compound. The Hypoxyprobe™ kit contains a primary antibody against these intercellular pimonidazole adducts. Successful immunohistochemical staining of pimonidazole adducts in the biofilm core indicates two important things. First, it would show nitro-reductase activity in the biofilm, and second it would be direct evidence for […] oxygen tension for a nitroimidazole prodrug radical to persist and react with critical cellular components. […]

[4] = anaerobic, read-out: Anaerobic MIC

Row | Structure (SMILES) | effect against planktonic bacteria as indicated by the MIC (S. aureus; FIG. 7 legend) | MIC (S. aureus; aerobic, for 1:1 combinations MIC is the sum of both compounds, read-out: Aerobic MIC) | MIC (S. aureus; anaerobic, for 1:1 combinations MIC is the sum of both compounds, read-out: Anaerobic MIC) | MIC (S. aureus; isolate used in biofilm tests, read-out: MIC against S. aureus) | MIC (A. baumannii) | MIC (MRSA USA300; aerobic, read-out: Aerobic MIC) | MIC (MRSA USA300; [4]) | MIC (P. aeruginosa; aerobic, read-out: Aerobic MIC) | MIC (P. aeruginosa; [4]) | MIC (S. epidermidis; aerobic, read-out: Aerobic MIC) | MIC (S. epidermidis; [4]) | MIC (E. coli; aerobic, read-out: Aerobic MIC) | MIC (E. coli; [4]) | MIC (K. pneumoniae; aerobic, read-out: Aerobic MIC) | MIC (K. pneumoniae; [4]) | reduction in MIC, anaerobic versus aerobic (K. pneumoniae; log-phase planktonic bacteria) | antibiofilm activity [1] | synergistic kill against biofilms [2] | location of dead and viable bacteria by live/dead staining (S. aureus biofilm) | location of pimonidazole adducts (nitro-reductase activity, hypoxia) [3]
1 | Cc1ncc([N+](=O)[O-])n1CCO [Metronidazole, metronidazole] | little effect against planktonic bacteria | 2500 µg/mL | > 2500 µg/mL | > 2500 µg/mL | > 2500 µg/mL | 1250 µg/mL | 1250 µg/mL | > 2500 µg/mL | > 2500 µg/mL | 312 µg/mL | 625 µg/mL | 1250 µg/mL | 156 µg/mL | > 2500 µg/mL | 1250 µg/mL | two | much greater antibiofilm activity compared to traditional antibiotics; also recorded: graded concentration-dependent effect against biofilms; also recorded: killed the otherwise difficult-to-kill persister cells embedded within the biofilm | strong synergistic kill | an abundance of dead and dying bacteria in the biofilm core contrasted with viable bacteria on the biofilm surface; also recorded: Dead cells (red) resided deep within the biofilm core | 
2 | O=[N+]([O-])c1nccn1CC(O)CN1CCCCC1 (centres unmarked) [pimonidazole] |  |  |  |  |  |  |  |  |  |  |  |  |  |  |  |  |  |  |  | adducts banded throughout the deepest parts of the biofilm core
